Patent US9314510B2, “Human laminin α2 chain LG3 domain and active peptides promoting cell adhesion, spreading, migration, and neurite outgrowth” (SNU R&DB Foundation, priority 2011, dated 2016)
Each block holds one molecule with its values, some of them ahead of it. Ends that are not written are not given here.

How the values were obtained:
[1] = test system: PC12 cells; assay: Cell migration assay (transwell migration chambers); type: cell-based, rat; settings: transwell filters coated with laminin 5 μg/mL, rLG proteins 25 μg/mL or peptides 62.5 μg/mL, 24 h
Protocol: Cell migration assays were performed using transwell migration chambers of 8 μm in pore size (Corning Inc., NY) as described in a paper published previously by the present inventors (Kim, J. M., Min, S. K., Kim, H., Kang, H. K., Jung, S. Y., Lee, S. H., Choi, Y., Roh, S., Jeong, D., and Min, B. M. (2007) Int. J. Mol. Med.).
The lower sides of transwell filters were coated with laminin (5 μg/mL) or rLG proteins (25 μg/mL) for 12 h at 4° C. The lower sides of transwell filters were blocked with 1% BSA in PBS for 1 h at 37° C. Cells were suspended at a density of 4×10^5 cells/mL in RPMI 1640 medium containing 0.5% FBS and 0.1% BSA. 100 μL of this suspension was seeded in the upper chamber of the transwell filter. Cells were allowed to migrate for 24 h at 37° C. and then fixed with 10% formalin for 15 min and stained with 0.5% crystal violet. Non-migrated cells in the upper chamber of transwell filters were removed with a cotton swab, viewed under a light microscope, and counted.
Specifically, to observe cell adhesion, spreading, migration, and neurite outgrowth promotion, the methods described in Experimental examples <2-1> to <2-3> were used and PC12 cells were cultured on plates coated with laminin (5 μg/mL), rLG3 (25 μg/mL), and rLG3-M1 (25 μg/mL) and observed. To observe cell adhesion, PC12 cells were incubated on the coated plates for 1 h and to observe cell spreading, PC12 cells were incubated on the coated plates for 3 h. To observe cell migration, PC12 cells were incubated on the coated plates for […].

[2] = test system: PC12 cells; assay: Immunostaining of actin stress fibers and focal adhesions; type: cell-based, rat; settings: PC12 cells on coated chamber slides, 3 h, serum-free
Protocol: Specifically, for immunostaining, PC12 cells were incubated on Lab-Tek chamber slides (Nalge Nunc International, Rochester, N.Y.) coated with laminin (5 μg/mL), rLG domain proteins (25 μg/mL), or Scrambled peptide (SP) (25 μg/well) in serum-free medium for 3 h at 37° C. Lab-Tek chamber slides were coated with BSA for the control. After rinsing with PBS, PC12 cells were fixed with 3.7% formalin for 20 min and permeabilized with 0.5% Triton X-100 for 5 min. PC12 cells were incubated with primary antibodies for 12 h at 4° C. The primary antibodies used were 1:500 anti-vinculin (Sigma-Aldrich 9131), or 1:300 rhodamin-phalloidin (Invitrogen R154) antibodies. After rinsing with PBS, PC12 cells were immunostained with FITC-conjugated anti-mouse IgG antibody (Jackson ImmunoResearch Laboratories, West Grove, Pa.) or rhodamin-conjugated anti-mouse IgG antibody (Santa Cruz Biotechnology) for 1 h at room temperature. After being washed three times with PBS, the stained PC12 cells were mounted and photographed using a confocal laser scanning microscope (FV300; Olympus, Japan).

[3] = test system: FAK Tyr-397; assay: FAK phosphorylation by western blotting; type: cell-based, rat; settings: PC12 cells on coated dishes; 15, 30, 60 min
Protocol: For measuring FAK phosphorylation, specifically, PC12 cells were starved for 12 h by replacing RPMI 1640 medium with 0.1% FBS. PC12 cells (2×10^6 cells) were plated on 60-mm dishes precoated with laminin (5 μg/mL), rLG3 (25 μg/mL), or Ln2-LG3-P2 (25 μg/well), and allowed to adhere for the indicated times (15 min, 30 min, and 60 min). Cells were washed with ice-cold PBS and lysed with 200 μL of RIPA buffer (50 mM Tris-HCl, pH 7.4, 150 mM NaCl, 1 mM EDTA 1% Triton X-100, 1 mM PMSF, 2 mM Na3VO4, 1 mM glycerol phosphate) containing a protease inhibitor cocktail. RIPA lysates were denatured using SDS sample buffer (50 mM Tris/HCl, pH 6.8, 2% SDS, 10% glycerol, 0.1% bromophenol blue, 50 mM dithiothreitol) and analysed by SDS-PAGE. The separated proteins were electroblotted onto an Immobilon-P membrane (Millipore, Bedford, Mass.) and probed with primary antibodies to FAK Tyr-397 (Biosource, Camarillo, Calif.), FAK (Upstate Biotechnology Inc., Lake Placid, N.Y.). All blots were then detected with HRP-conjugated secondary antibodies (Cell Signaling). Signals were detected by ECL (iNtRON Biotechnology, Korea).

[4] = target: T1, integrin β1 (Rattus norvegicus, UniProt P49134); assay: Immunoprecipitation of PKCα, PKCδ and FAK with His6-rLG3 or integrin β1; type: cell-based; settings: PC12 cells on coated dishes, 30 min
T1 construct: whether PKCα and -δ exist as associated complexes in PC12 cells seeded on laminin-, rLG3-, and Ln2-LG3-P2-coated dishes; endogenous in cells; host or cells: PC12 cells
Protocol: Specifically, for immunoprecipitation, PC12 cells were starved for 12 h with RPMI 1640 medium containing 0.1% FBS. Cells were detached and resuspended in serum-free medium with 0.1% BSA. PC12 cells (4×10^6 cells/100-mm dish) were seeded on laminin (5 μg/mL)-, rLG3 (25 μg/mL)-, or Ln2-LG3-P2 (25 μg/well)-coated dishes and allowed to attach for 30 min at 37° C. After incubation, cells were washed with ice-cold PBS, lysed with RIPA buffer containing a protease inhibitor cocktail. The lysates were centrifuged and the supernatants were preincubated with 50 μL of immobilized protein G beads (Upstate Biotechnology Inc.) for 1 h at 4° C. to remove nonspecific binding. The supernatants were incubated with anti-His6 (Roche, Mannheim, Germany), anti-integrin (Santa Cruz Biotechnology), or anti-PKCδ (Santa Cruz Biotechnology) antibodies for 2 h at 4° C. The immunocomplexes were precipitated with immobilized protein G beads for 12 h at 4° C. After centrifugation, beads carrying the immune complexes were washed four times with RIPA buffer. Immunoprecipitates were resuspended in SDS sample buffer, boiled for 5 min, and analysed by Western blotting.

[5] = test system: PKCδ; assay: Tyrosine phosphorylation of PKCδ (immunoprecipitation and Western blotting); type: cell-based, rat; settings: PC12 cells on coated dishes, 30 min
Protocol: PC12 cells were incubated on dishes coated with laminin, rLG3, or the Ln2-LG3-P2 peptide for 30 min and the interaction of PKCδ with phosphotyrosine was examined using immunoprecipitation and Western blotting.

T1 sequence (P49134 21-799): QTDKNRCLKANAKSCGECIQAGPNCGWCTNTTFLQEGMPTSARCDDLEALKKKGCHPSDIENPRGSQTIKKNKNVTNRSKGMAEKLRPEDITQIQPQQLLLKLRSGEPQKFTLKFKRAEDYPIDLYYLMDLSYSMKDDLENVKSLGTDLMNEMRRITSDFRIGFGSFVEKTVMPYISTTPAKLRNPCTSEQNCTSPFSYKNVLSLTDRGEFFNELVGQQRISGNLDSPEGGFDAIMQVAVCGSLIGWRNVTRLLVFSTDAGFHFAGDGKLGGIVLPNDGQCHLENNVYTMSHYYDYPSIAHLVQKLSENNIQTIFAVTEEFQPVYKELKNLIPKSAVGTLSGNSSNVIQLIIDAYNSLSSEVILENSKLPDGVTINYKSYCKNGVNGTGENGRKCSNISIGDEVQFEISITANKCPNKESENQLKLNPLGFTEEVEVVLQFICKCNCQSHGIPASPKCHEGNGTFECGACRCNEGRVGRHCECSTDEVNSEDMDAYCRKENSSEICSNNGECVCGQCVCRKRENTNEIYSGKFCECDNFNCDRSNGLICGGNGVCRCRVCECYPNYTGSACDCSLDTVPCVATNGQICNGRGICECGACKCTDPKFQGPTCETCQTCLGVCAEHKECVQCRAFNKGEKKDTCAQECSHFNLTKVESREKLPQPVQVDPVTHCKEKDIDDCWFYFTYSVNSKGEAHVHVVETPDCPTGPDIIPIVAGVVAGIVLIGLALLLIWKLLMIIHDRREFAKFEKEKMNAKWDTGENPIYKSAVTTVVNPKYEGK

proteins in integrin β1 immunoprecipitates [4]: PKCα, PKCδ, and FAK were also observed
Molecule: RNIPPFEGCIWN (RNIPPFEGCIWN-NH2; listed as Homo sapiens) [Ln2-LG3-P2, 12-mer peptide, position 2675 to 2686 in human laminin α2 chain]
cell migration [1]: comparable to that of rLG3
actin stress fiber formation and focal adhesions [2]: formed stress fiber formation, and focal adhesions but to a lesser degree than those on laminin
cell spreading (immunostaining) [2]: spread well
time at which FAK phosphorylation levels at Tyr-397 peaked [3]: 15 min
tyrosine phosphorylation of PKCδ [5]: increased

proteins in integrin β1 immunoprecipitates [4]: PKCα, PKCδ, and FAK were also observed
Molecule: laminin [reference compound]
cell migration [1]: promoted cell migration
actin stress fiber formation and focal adhesions [2]: formed actin stress fibers and focal adhesions
cell spreading (immunostaining) [2]: spread very well
time at which FAK phosphorylation levels at Tyr-397 peaked [3]: 15 min
tyrosine phosphorylation of PKCδ [5]: increased

proteins in anti-His6 immunoprecipitates [4]: PKCα, PKCδ, and FAK were observed
proteins in integrin β1 immunoprecipitates [4]: PKCα, PKCδ, and FAK were also observed
B1: rLG3: recombinant His6-tagged human laminin α2 chain LG3 domain, amino acids 2537 to 2745 (protein, listed as Homo sapiens)
chain: VELSPVPIDVGTEINLSFSTKNESGIILLGSGGTPAPPRRKRRQTGQAYYVILLNRGRLEVHLSTGARTMRKIVIRPEPNLFHDGREHSVHVERTRGIFTVQVDENRRYMQNLTVEQPIEVKKLFVGGAPPEFQPSPLRNIPPFEGCIWNLVINSVPMDFARPVSFKNADIGRCAHQKLREDEDGAAPAEIVIQPEPVPTPAFPTPTPV
modifications: His6 tag
cell migration [1]: induced cell migration significantly
actin stress fiber formation and focal adhesions [2]: formed stress fiber formation, and focal adhesions but to a lesser degree than those on laminin
cell spreading (immunostaining) [2]: spread well
time at which FAK phosphorylation levels at Tyr-397 peaked [3]: 15 min
tyrosine phosphorylation of PKCδ [5]: increased
